Measurements reported in patent publication US12419900B2, “Induction of synthetic lethality with epigenetic therapy” (The Johns Hopkins University, priority 2017, dated 2025).
Where two headings read alike, the source gives them in different places.

Assays:
PC-3 cancer cells [1] = assay: Chemical library screen (JHDL), second stage, dose response matrix with decitabine; type: cell-based
From the text: Cells were exposed to each dose of decitabine for four consecutive days prior to addition of each dose of the identified compounds for three consecutive days. […] FIG. 30 is a bar graph illustrating the Bliss Independence score values for the cells of the compounds identified.

[2] = tested on: retinoic acid signaling pathway; assay: pRARE-luciferase reporter of retinoic acid signaling in PC-3 cells; type: cell-based, human; details: 72 hours; for RAR Reporter Activity, Average / RAR Reporter Activity, Trial 1 / RAR Reporter Activity, Trial 2 / RAR Reporter Activity, Trial 3 / RAR Reporter Activity, Trial 4 / RAR Reporter Activity, Trial 5 / RAR Reporter Activity, Trial 6: KCC-08 10 μM, isotretinoin 5 μM, vehicle average 1.00
Method: To determine whether MBD2 protein inhibitors triggered retinoic acid signaling pathway activation, KCC-08 was administered to PC-3 human prostate cancer cells transfected with a heterologous reporter plasmid responsive to the presence of retinoic acid signaling (pRARE-luciferase), and the cells were used to assess reactivation of the retinoic acid response signaling pathway. The cancer cells were treated with a vehicle control or KCC-08 (10 μM) both with and without isotretinoin (5 μM) for 72 hours, and then assayed for luciferase reporter production.

PC-3 cancer cells [3] = assay: Clonogenic survival; type: cell-based, human; details: 72 hours treatment, colonies ten days later, vehicle control 100.00, 12-27 replicates
Method: To assay for cancer clonogenic survival, PC-3 cancer cells were seeded into 6-well plates at 5,000 cells/well and allowed to attach overnight. Next, the cells were treated for 72 hours with vehicle control or KCC-08, both with and without isotretinoin, washed three times with phosphate-buffered saline, and then placed back into complete growth medium. Ten days later, colonies founded by surviving cells were detected using crystal violet staining.

PC-3 xenograft tumors = assay: PC-3 xenograft growth suppression; type: in vivo, Male Fox1-nude mice; details: KCC-08 i.p. 1 then 0.5 mg/kg, isotretinoin oral 30 mg/kg
Method: For cancer xenograft growth suppression, one million human PC-3 prostate cancer cells were suspended in Matrigel and inoculated into the flanks of Male Fox1-nude mice provided by Jackson Laboratory (Bar Harbor, ME). When the resultant xenograft tumors were measurable two weeks later, the tumor-bearing mice were treated with KCC-08, given by intraperitoneal infection in saline for 5 of 7 days at 1 mg/kg for week 1 and then 0.5 mg/kg for 5 of 7 days for week 2. Isotretinoin was given by oral gavage in peanut oil at 30 mg/kg for the same 5 of 7 days as the KCC-08 for weeks 1 and 2. For week 3, isotretinoin was given by oral gavage in peanut oil at 30 mg/kg for 5 of 7 days, and KCC-08 was not administered. Tumors were measured 3 times a week for 3 weeks, and the volume was estimated by using the formula 4/3*Π*width*length*depth.

[4] = tested on: DU145 prostate cancer cells; assay: Alamar blue cell viability and growth, alisertib x decitabine dose matrix; type: cell-based; details: Aurora kinase inhibitor + decitabine
Method: DU145 prostate cancer cells and A549 lung cancer cells were treated with varying concentrations (0 nM, 10 nM, 50 nM, and 100 nM) of alisertib in addition to varying concentrations of decitabine (0 nM, 50 nM, 100 nM, and 250 nM). Representative data are shown in FIGS. 2A and 2B, as well as the Tables below. […] In each panel, a dose response of each drug alone and in combination was used in Alamar blue cell viability assays. […] Formal synergy analyses were performed using the Bliss independence score (where values greater than zero indicate greater than additive effect). […] The graph of FIG. 2A is a growth curve of the DU145 prostate cancer cells for the agents alone (decitabine and alisertib separately), a vehicle control, and the agents in combination (decitabine and alisertib together). […] Likewise, the graph of FIG. 2B is a growth curve of the A549 lung cancer cells for the agents alone (decitabine and alisertib separately), a vehicle control, and the agents in combination (decitabine and alisertib together). […] The synergy analysis of the combination of decitabine and alisertib was evaluated in a series of 18 cancer cell lines (9 prostate, 1 ovarian, 1 lung, 2 colon, 2 central nervous system, and 3 breast cancer cell lines) and 2 non-cancer cell models.

[5] = PC-3, decitabine 0-10 μM four days, then compound 0-10 μM three days

Cn1cc(C2=C(c3cn(CCCSC(=N)N)c4ccccc34)C(=O)NC2=O)c2ccccc21 [RO31-8220]
growth inhibition when combined with decitabine (Bliss independence score sum across all dose combinations greater than zero) (PC-3 cancer cells [1]): synergistic growth inhibition

CCC1=C[C@@H]2CN(C1)Cc1c([nH]c3ccccc13)[C@@](C(=O)OC)(c1cc3c(cc1OC)N(C)[C@H]1[C@@](O)(C(=O)OC)[C@H](OC(C)=O)[C@]4(CC)C=CCN5CC[C@]31[C@@H]54)C2 [vinorelbine]
growth inhibition when combined with decitabine (Bliss independence score sum across all dose combinations greater than zero) (PC-3 cancer cells [1]; [5]): synergistic growth inhibition

Nc1ccn([C@@H]2O[C@H](CO)[C@@H](O)[C@@H]2O)c(=O)n1 [cytarabine]
growth inhibition when combined with decitabine (Bliss independence score sum across all dose combinations greater than zero) (PC-3 cancer cells [1]; [5]): synergistic growth inhibition

COc1cc2ncn(-c3cc(OCc4ccccc4C(F)(F)F)c(C(N)=O)s3)c2cc1OC [GW843682]
growth inhibition when combined with decitabine (Bliss independence score sum across all dose combinations greater than zero) (PC-3 cancer cells [1]; [5]): synergistic growth inhibition

CC1=C(/C=C/C(C)=C/C=C/C(C)=C\C(=O)O)C(C)(C)CCC1 [Isotretinoin, isotretinoin]
RAR Reporter Activity, Average [2]: 1.57 | RAR Reporter Activity, Trial 1 [2]: 1.66 | RAR Reporter Activity, Trial 2 [2]: 1.77 | RAR Reporter Activity, Trial 3 [2]: 1.62 | RAR Reporter Activity, Trial 4 [2]: 1.42 | RAR Reporter Activity, Trial 5 [2]: 1.47 | RAR Reporter Activity, Trial 6 [2]: 1.46 | Clonogenic Survival Relative to Control, Average (PC-3 cancer cells [3]): 96.62 | Percent average xenograft tumor volume relative to baseline, Average (PC-3 xenograft tumors; Day 1): 100% | Percent average xenograft tumor volume relative to baseline, Average (PC-3 xenograft tumors; Day 4): 161.09% | Percent average xenograft tumor volume relative to baseline, Average (PC-3 xenograft tumors; Day 8): 238.81% | Percent average xenograft tumor volume relative to baseline, Average (PC-3 xenograft tumors; Day 11): 315.81% | Percent average xenograft tumor volume relative to baseline, Average (PC-3 xenograft tumors; Day 15): 394.27% | Percent average xenograft tumor volume relative to baseline, Average (PC-3 xenograft tumors; Day 18): 488.75% | Percent average xenograft tumor volume relative to baseline, Average (PC-3 xenograft tumors; Day 22): 522.19%

Cn1c2ccccc2n2cc(-c3ccc([N+](=O)[O-])cc3)nc12 [KCC-08]
luciferase activity / retinoic acid signaling pathway activation ([2]; KCC-08 10 μM with or without isotretinoin 5 μM): enhanced | RAR Reporter Activity, Average [2]: 2.24 | RAR Reporter Activity, Trial 1 [2]: 2.08 | RAR Reporter Activity, Trial 2 [2]: 2.31 | RAR Reporter Activity, Trial 3 [2]: 1.96 | RAR Reporter Activity, Trial 4 [2]: 2.46 | RAR Reporter Activity, Trial 5 [2]: 2.36 | RAR Reporter Activity, Trial 6 [2]: 2.28 | Clonogenic Survival Relative to Control, Average (PC-3 cancer cells [3]): 96.86 | Percent average xenograft tumor volume relative to baseline, Average (PC-3 xenograft tumors; Day 1): 100% | Percent average xenograft tumor volume relative to baseline, Average (PC-3 xenograft tumors; Day 4): 151.16% | Percent average xenograft tumor volume relative to baseline, Average (PC-3 xenograft tumors; Day 8): 223.22% | Percent average xenograft tumor volume relative to baseline, Average (PC-3 xenograft tumors; Day 11): 250.94% | Percent average xenograft tumor volume relative to baseline, Average (PC-3 xenograft tumors; Day 15): 338.37% | Percent average xenograft tumor volume relative to baseline, Average (PC-3 xenograft tumors; Day 18): 406.04% | Percent average xenograft tumor volume relative to baseline, Average (PC-3 xenograft tumors; Day 22): 452.09%

O=C(O)c1ccc(Nc2ncc3c(n2)-c2ccc(Cl)cc2C(c2c(F)cccc2F)=NC3)cc1 [MLN8054]
growth inhibition of DU-145 cells in combination with decitabine [4]: synergistic growth inhibition

CC[C@@]1(O)C(=O)OCc2c1cc1n(c2=O)Cc2cc3c(CN(C)C)c(O)ccc3nc2-1 [topotecan]
growth inhibition when combined with decitabine (Bliss independence score sum across all dose combinations greater than zero) (PC-3 cancer cells [1]; [5]): synergistic growth inhibition

CC(C)[C@@H]1NC(=O)[C@H](C)OC(=O)[C@@H](C(C)C)NC(=O)[C@@H](C(C)C)OC(=O)[C@H](C(C)C)NC(=O)[C@H](C)OC(=O)[C@@H](C(C)C)NC(=O)[C@@H](C(C)C)OC(=O)[C@H](C(C)C)NC(=O)[C@H](C)OC(=O)[C@@H](C(C)C)NC(=O)[C@@H](C(C)C)OC1=O [valinomycin]
growth inhibition when combined with decitabine (Bliss independence score sum across all dose combinations greater than zero) (PC-3 cancer cells [1]; [5]): synergistic growth inhibition

CCCCCCCCCCCCCCCCn1cc[n+](Cc2ccccc2)c1C.[I-] [NH125]
growth inhibition when combined with decitabine (Bliss independence score sum across all dose combinations greater than zero) (PC-3 cancer cells [1]): synergistic growth inhibition

CC(=O)O[C@@]12CO[C@@H]1C[C@H](O)[C@@]1(C)C(=O)[C@H](O)C3=C(C)[C@@H](OC(=O)[C@H](O)[C@@H](NC(=O)OC(C)(C)C)c4ccccc4)C[C@@](O)([C@@H](OC(=O)c4ccccc4)[C@H]21)C3(C)C [docetaxel]
growth inhibition when combined with decitabine (Bliss independence score sum across all dose combinations greater than zero) (PC-3 cancer cells [1]; [5]): synergistic growth inhibition

N.N.O=C([O-])C1(C(=O)[O-])CCC1.[Pt+2] [carboplatin]
growth inhibition when combined with decitabine (Bliss independence score sum across all dose combinations greater than zero) (PC-3 cancer cells [1]; [5]): synergistic growth inhibition

COc1ccc(C[C@H]2NC[C@H](O)[C@H]2OC(C)=O)cc1 [anisomycin]
growth inhibition when combined with decitabine (Bliss independence score sum across all dose combinations greater than zero) (PC-3 cancer cells [1]; [5]): synergistic growth inhibition

Cc1ccc2c(=O)c3ccccc3n(CCCN)c2c1C.O=C(O)C(=O)O [ER27319]
growth inhibition when combined with decitabine (Bliss independence score sum across all dose combinations greater than zero) (PC-3 cancer cells [1]; [5]): synergistic growth inhibition

CC[C@@]1(O)C[C@H](O[C@H]2C[C@H](N(C)C)[C@H](O[C@H]3C[C@H](O)[C@H](O[C@H]4CCC(=O)[C@H](C)O4)[C@H](C)O3)[C@H](C)O2)c2c(cc3c(c2O)C(=O)c2c(O)cccc2C3=O)[C@H]1C(=O)OC [aclarubicin]
growth inhibition when combined with decitabine (Bliss independence score sum across all dose combinations greater than zero) (PC-3 cancer cells [1]): synergistic growth inhibition

C[C@@H]1O[C@@H](O[C@H]2C[C@@H](O)[C@]3(CO)[C@H]4[C@H](O)C[C@]5(C)[C@@H](C6=CC(=O)OC6)CC[C@]5(O)[C@@H]4CC[C@]3(O)C2)[C@H](O)[C@H](O)[C@H]1O [ouabain]
growth inhibition when combined with decitabine (Bliss independence score sum across all dose combinations greater than zero) (PC-3 cancer cells [1]; [5]): synergistic growth inhibition

Cc1csc(-c2nnc(Nc3ccc(Oc4ncccc4-c4ccnc(N)n4)cc3)c3ccccc23)c1 [AMG-900]
growth inhibition of DU-145 cells in combination with decitabine [4]: synergistic growth inhibition

COc1c(C)c2c(c(O)c1C/C=C(\C)CCC(=O)O)C(=O)OC2 [mycophenolic acid]
growth inhibition when combined with decitabine (Bliss independence score sum across all dose combinations greater than zero) (PC-3 cancer cells [1]; [5]): synergistic growth inhibition

CO[C@H]1C[C@H](O[C@H]2CC[C@]3(C)[C@H]4CC[C@]5(C)[C@@H](C6=CC(=O)OC6)CC[C@]5(O)[C@@H]4CC[C@]3(O)C2)O[C@H](C)[C@H]1O [periplocymarin]
growth inhibition when combined with decitabine (Bliss independence score sum across all dose combinations greater than zero) (PC-3 cancer cells [1]): synergistic growth inhibition

Nc1ccc(-c2cccc3c(=O)cc(N4CCOCC4)oc23)cc1 [PI828]
growth inhibition when combined with decitabine (Bliss independence score sum across all dose combinations greater than zero) (PC-3 cancer cells [1]; [5]): synergistic growth inhibition

O=C1NC(=O)c2c1c1c3ccccc3n3c1c1c2c2ccccc2n1C1CCC3O1 [SB218078]
growth inhibition when combined with decitabine (Bliss independence score sum across all dose combinations greater than zero) (PC-3 cancer cells [1]; [5]): synergistic growth inhibition

Nc1ccn([C@@H]2O[C@H](CO)[C@@H](O)C2(F)F)c(=O)n1 [gemcitabine]
growth inhibition when combined with decitabine (Bliss independence score sum across all dose combinations greater than zero) (PC-3 cancer cells [1]; [5]): synergistic growth inhibition

C[C@]12CC[C@H]3[C@@H](CC[C@]4(O)C[C@@H](O)CC[C@]34C=O)[C@@]1(O)CC[C@@H]2C1=CC(=O)OC1 [strophanthidin]
growth inhibition when combined with decitabine (Bliss independence score sum across all dose combinations greater than zero) (PC-3 cancer cells [1]): synergistic growth inhibition

COc1cc2c(c(OC)c1OC)-c1ccc(OC)c(=O)cc1[C@@H](NC(C)=O)CC2 [colchicine]
growth inhibition when combined with decitabine (Bliss independence score sum across all dose combinations greater than zero) (PC-3 cancer cells [1]): synergistic growth inhibition
